Assay [1] deals with H3122 cells. The assay is described as follows: CTG. The settings on record: read-out: CTG IC50. In kind it is cell-based.
Assay [2] concerns the target T1, EML4-ALK (Homo sapiens, UniProt Q9UM73).
T1 construct: endogenous in cells; host or cells: H3122 (NSCLC), single-cell clone after CRISPR knock-in of HiBit; the other entry of the earlier key: EML4 (Q9HC35, Echinoderm microtubule-associated protein-like 4)
The assay is described as follows: EML4-ALK HiBit degradation assay in CRISPR-tagged H3122 cells (Nano-Glo HiBit Lytic Detection). In kind it is cell-based. The protocol: NSCLC cell line H3122 was subjected to CRISPR to express EML4-ALK with HiBit-tag on its c-terminal. Single-cell clone was selected and expanded for the following assays that monitor endogenous EML4-ALK level in high throughput manner. Cells were seeded in 384-well white Tissue-culture plates at 3000 cells/well for 8 hours. […] HiBit signal was assessed using Nano-Glo® HiBit Lytic Detection System (Promega™). Degrader-treated was normalized by DMSO-treated controls and DC50 and Dmax were generated by GraphPad Prism® 8.0.
NSCLC cell line H3122 was subjected to CRISPR to express EML4-ALK with HiBit-tag on its c-terminus. A single-cell clone was selected and expanded for the following assays that monitor endogenous EML4-ALK level in high throughput manner. Cells were seeded in 384-well white Tissue-culture plates at 3000 cells/well for 8 hours. […] HiBit signal was assessed using Nano-Glo® HiBit Lytic Detection System (Promega™). Degrader-treated cells were normalized by DMSO-treated controls and DC50 and Dmax were generated by GraphPad Prism® 8.0.
NSCLC cell line H3122 was subjected to CRISPR to express EML4-ALK with HiBit-tag on its C-terminus. A single-cell clone was selected and expanded for the following assays that monitor endogenous EML4-ALK level in high throughput manner. Cells were seeded in 384-well white Tissue-culture plates at 3000 cells/well for 8 hours. […] HiBit signal was assessed using Nano-Glo® HiBit Lytic Detection System (Promega™). Degrader-treated cells were normalized by DMSO-treated controls and DC50 and Dmax were generated by GraphPad Prism® 8.0.
Background: HiBiT is a short tag that completes a luciferase, so light tracks the accessible tagged protein.

Setting [3] is: Homo sapiens, NCI-H3122, Table 1.
[4] abbreviates: NCI-H3122, Table 1, first Dmax column, H3122 EML4-ALK-HiBit, 16 hours, read-out: Degradation Dmax.
The mark [5] stands for this setting: NCI-H3122, Table 1, second Dmax column, H3122 EML4-ALK-HiBit, 16 hours, read-out: Degradation Dmax.
The mark [6] stands for this setting: NCI-H3122, Table 1, average Dmax, read-out: Degradation Avg. Dmax.
Setting [7] is: Table 1, first DC50 column, H3122 EML4-ALK-HiBit, 16 hours, read-out: Degradation DC50.
Setting [8] is: Table 1, second DC50 column, H3122 EML4-ALK-HiBit, 16 hours, read-out: Degradation DC50.
[9] abbreviates: Table 1, average DC50, read-out: Degradation Avg. DC50.
Where [10] appears, read: Table 2, first DC50 column, H3122 EML4-ALK-HiBit, 16 hours, read-out: Degradation DC50.
[11] abbreviates: Table 2, average DC50, read-out: Degradation Avg. DC50.
Where [12] appears, read: Homo sapiens, NCI-H3122, Table 2.
Setting [13] is: NCI-H3122, Table 2, first Dmax column, H3122 EML4-ALK-HiBit, 16 hours, read-out: Degradation Dmax.
[14] abbreviates: NCI-H3122, Table 2, average Dmax, read-out: Degradation Avg. Dmax.
The mark [15] stands for this setting: NCI-H3122, Table 2, second Dmax column, H3122 EML4-ALK-HiBit, 16 hours, read-out: Degradation Dmax.
Setting [16] is: Table 2, second DC50 column, H3122 EML4-ALK-HiBit, 16 hours, read-out: Degradation DC50.

Each structure is given as a SMILES string. Like-named read-outs stand apart in the source and are kept apart here. Some results are limits rather than exact numbers.

T1 sequence (Q9UM73 with tags, fused parts or gaps): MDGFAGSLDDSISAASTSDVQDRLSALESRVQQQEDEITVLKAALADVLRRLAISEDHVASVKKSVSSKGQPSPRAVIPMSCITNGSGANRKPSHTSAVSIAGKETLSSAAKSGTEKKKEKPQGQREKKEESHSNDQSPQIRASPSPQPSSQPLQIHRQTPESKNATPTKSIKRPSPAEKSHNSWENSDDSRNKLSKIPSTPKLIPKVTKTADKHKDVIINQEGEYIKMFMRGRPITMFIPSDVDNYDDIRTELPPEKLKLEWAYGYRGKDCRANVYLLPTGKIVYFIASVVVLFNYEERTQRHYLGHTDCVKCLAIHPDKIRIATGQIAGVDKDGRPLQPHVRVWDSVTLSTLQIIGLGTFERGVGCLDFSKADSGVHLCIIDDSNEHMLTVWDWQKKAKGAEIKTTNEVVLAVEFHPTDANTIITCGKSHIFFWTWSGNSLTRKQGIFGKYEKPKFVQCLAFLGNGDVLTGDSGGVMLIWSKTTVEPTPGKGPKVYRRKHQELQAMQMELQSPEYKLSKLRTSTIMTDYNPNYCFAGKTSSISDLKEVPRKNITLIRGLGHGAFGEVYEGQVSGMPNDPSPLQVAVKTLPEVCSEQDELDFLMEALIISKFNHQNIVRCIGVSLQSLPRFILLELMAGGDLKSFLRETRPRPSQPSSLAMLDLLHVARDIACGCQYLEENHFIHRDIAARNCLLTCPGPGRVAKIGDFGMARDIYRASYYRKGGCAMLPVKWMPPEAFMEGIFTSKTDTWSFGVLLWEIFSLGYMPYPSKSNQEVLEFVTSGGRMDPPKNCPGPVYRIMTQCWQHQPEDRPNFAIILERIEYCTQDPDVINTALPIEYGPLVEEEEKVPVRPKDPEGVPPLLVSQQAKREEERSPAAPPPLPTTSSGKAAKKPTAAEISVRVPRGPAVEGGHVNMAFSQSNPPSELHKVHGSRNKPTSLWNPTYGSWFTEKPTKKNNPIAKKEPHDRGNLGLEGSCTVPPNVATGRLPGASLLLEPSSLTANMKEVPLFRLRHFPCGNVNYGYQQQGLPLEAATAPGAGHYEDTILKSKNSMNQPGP

In the case of `COc1cc(CCNCCCCCOc2cc(-c3scnc3C)ccc2[C@H](C)NC(=O)[C@@H]2C[C@@H](O)CN2C(=O)[C@@H](NC(C)=O)C(C)(C)C)c(C)cc1Nc1ncc(Cl)c(Nc2ccccc2S(=O)(=O)C(C)C)n1` [Compound 53], in assay [1] (setting [3]), the 50% inhibitory concentration (IC50) (commonly the point on the concentration scale where inhibition reaches its midpoint) was 121 nM. Further, the Dmax (in general, the greatest extent of degradation seen) was 64.9% in assay [2] (setting [4]), 68.2% in assay [2] (setting [5]) and 66.5% in assay [2] (setting [6]). Further, the DC50 (as a rule, the concentration at which degradation of the target reaches its halfway point) in assay [2] (setting [7]) is 113 nM; in assay [2] (setting [8]), 72 nM; in assay [2] (setting [9]) it was 93 nM.
Regarding `COc1cc(CCN(C)CCCCCOc2cc(-c3scnc3C)ccc2[C@H](C)NC(=O)[C@@H]2C[C@@H](O)CN2C(=O)[C@@H](NC(C)=O)C(C)(C)C)c(C)cc1Nc1ncc(Cl)c(Nc2ccccc2S(=O)(=O)C(C)C)n1` [Compound 54], the IC50 in assay [1] (setting [3]) is 73.6 nM. Besides, the figures for the Dmax in assay [2] (setting [4]) and in assay [2] (setting [5]) were 68.4% and 68.2%, respectively. Moreover, the figures for the DC50 in assay [2] (setting [7]), in assay [2] (setting [8]) and in assay [2] (setting [9]) were 67 nM, 57 nM and 62 nM, respectively.
For the compound `CC[C@@H](NC(=O)C1CC(NC(=O)CCCCCCC(=O)N(C)CCc2cc(OC)c(Nc3ncc(Cl)c(Nc4ccccc4S(=O)(=O)C(C)C)n3)cc2C)CN1C(=O)[C@@H](NC(=O)[C@H](C)NC)C(C)(C)C)c1ccccc1` (some centres unmarked) [Compound 55], the half-inhibitory concentration (IC50) in assay [1] (setting [3]) was determined as 296 nM. The Dmax in assay [2] (setting [4]) is 74.6%; in assay [2] (setting [5]), 102%; in assay [2] (setting [6]), 88.2%. Moreover, the 50% degradation concentration (DC50) in assay [2] (setting [7]) came out at 624 nM; in assay [2] (setting [8]), 360 nM; in assay [2] (setting [9]), 492 nM.
As for `CC[C@@H](NC(=O)[C@@H]1C[C@H](NC(=O)CCCCCCCC(=O)N(C)CCc2cc(OC)c(Nc3ncc(Cl)c(Nc4ccccc4S(=O)(=O)C(C)C)n3)cc2C)CN1C(=O)[C@@H](NC(=O)[C@H](C)NC)C(C)(C)C)c1ccccc1` [Compound 56], the IC50 in assay [1] (Table 1) was determined as 360 nM. The DC50 amounted to 163 nM in assay [2] (setting [7]), 226 nM in assay [2] (setting [8]) and 195 nM in assay [2] (setting [9]).
For the compound `COc1cc(CCN(C)C(=O)CCCNC(=O)COc2cccc3c2C(=O)N(C2CCC(=O)NC2=O)C3=O)c(C)cc1Nc1ncc(Cl)c(Nc2ccccc2P(C)(C)=O)n1` (centres unmarked) [Compound 57], in assay [1] (Table 2), the concentration for half-maximal inhibition (IC50) is over 10000 nM. For the same compound, the half-maximal degradation concentration (DC50) in assay [2] (setting [10]) and in assay [2] (setting [11]) was 9340 nM in each case.
Consider `COc1cc(CCN(C)C(=O)CCCCCCCCNC(=O)COc2cccc3c2C(=O)N(C2CCC(=O)NC2=O)C3=O)c(C)cc1Nc1ncc(Cl)c(Nc2ccccc2P(C)(C)=O)n1` (centres unmarked) [Compound 59], for which, in assay [1] (setting [12]), the half-inhibitory concentration (IC50) turned out to be 1720 nM. Also, the Dmax in assay [2] (setting [13]) and in assay [2] (setting [14]) was 33.7% in each case. For the same compound, the DC50 in assay [2] (setting [10]) and in assay [2] (setting [11]) was 3740 nM each time.
For `COc1cc(CCN(C)C(=O)CCCC#Cc2cccc3c2C(=O)N(C2CCC(=O)NC2=O)C3=O)c(C)cc1Nc1ncc(Cl)c(Nc2ccccc2P(C)(C)=O)n1` (centres unmarked) [Compound 61], the IC50 in assay [1] (setting [12]) is over 10000 nM. Moreover, the Dmax in assay [2] (setting [13]) was found to be 29.5%; in assay [2] (setting [15]), 39.6%; in assay [2] (setting [14]), 34.5%. Further, the values for the DC50 in assay [2] (setting [10]), in assay [2] (setting [16]) and in assay [2] (setting [11]) were 9040 nM, 8370 nM and 8700 nM, respectively.
Consider `COc1cc(CCN(C)C(=O)CCCCCC#Cc2cccc3c2C(=O)N(C2CCC(=O)NC2=O)C3=O)c(C)cc1Nc1ncc(Cl)c(Nc2ccccc2P(C)(C)=O)n1` (centres unmarked) [Compound 62], for which the half-maximal inhibitory concentration (IC50) in assay [1] (setting [12]) is over 10000 nM. Besides, the Dmax in assay [2] (setting [13]) and in assay [2] (setting [14]) was 27.8% in each case. For the same compound, the DC50 in assay [2] (setting [10]) and in assay [2] (setting [11]) was 4380 nM in each case.
Turning to `COc1cc(CCN(C)C(=O)CCOCCOCCOCC#Cc2cccc3c2C(=O)N(C2CCC(=O)NC2=O)C3=O)c(C)cc1Nc1ncc(Cl)c(Nc2ccccc2P(C)(C)=O)n1` (centres unmarked) [Compound 63], the IC50 in assay [1] (setting [12]) is over 10000 nM. Moreover, the Dmax in assay [2] (setting [13]) and in assay [2] (setting [14]) was 27.3% each time. Besides, the DC50 in assay [2] (setting [10]) and in assay [2] (setting [11]) was 3910 nM throughout.
Regarding `COc1cc(CCN(C)C(=O)CCCCCNc2cccc3c2C(=O)N(C2CCC(=O)NC2=O)C3=O)c(C)cc1Nc1ncc(Cl)c(Nc2ccccc2P(C)(C)=O)n1` (centres unmarked) [Compound 65], in assay [1] (setting [12]), the 50% inhibitory concentration (IC50) was found to be 1100 nM. In addition, the Dmax in assay [2] (setting [13]) and in assay [2] (setting [14]) was 26.2% in each case. In addition, the DC50 in assay [2] (setting [10]) and in assay [2] (setting [11]) was 2560 nM throughout.
As for `COc1cc(CCN(C)C(=O)CCCCCCCCNc2cccc3c2C(=O)N(C2CCC(=O)NC2=O)C3=O)c(C)cc1Nc1ncc(Cl)c(Nc2ccccc2P(C)(C)=O)n1` (centres unmarked) [Compound 66], the IC50 in assay [1] (setting [12]) was found to be 1630 nM. The Dmax in assay [2] (setting [13]) stood at 23.6%; in assay [2] (setting [15]), 49.3%; in assay [2] (setting [14]), 36.5%. Besides, the half-maximal degradation concentration (DC50) in assay [2] (setting [10]) was 1730 nM; in assay [2] (setting [16]) it was 670 nM; in assay [2] (setting [11]), 1200 nM.
Regarding `COc1cc(CCNCCCC(=O)N[C@H](C(=O)N2C[C@H](O)C[C@H]2C(=O)N[C@@H](C)c2ccc(-c3scnc3C)cc2)C(C)(C)C)c(C)cc1Nc1ncc(Cl)c(Nc2ccccc2P(C)(C)=O)n1` [Compound 72], the half-inhibitory concentration (IC50) in assay [1] (setting [12]) is 2950 nM. Also, the Dmax in assay [2] (setting [13]), in assay [2] (setting [15]) and in assay [2] (setting [14]) was 37.9% in each case. Moreover, the values for the DC50 in assay [2] (setting [10]), in assay [2] (setting [16]) and in assay [2] (setting [11]) were 8820 nM, 3590 nM and 6200 nM, respectively.
Take `COc1cc(CCNCCCCCSC(C)(C)C(NC(C)=O)C(=O)N2C[C@H](O)C[C@H]2C(=O)N[C@@H](C)c2ccc(-c3scnc3C)cc2)c(C)cc1Nc1ncc(Cl)c(Nc2ccccc2P(C)(C)=O)n1` (some centres unmarked) [Compound 73]: in assay [1] (setting [12]), the half-inhibitory concentration (IC50) stood at 788 nM. Also, the Dmax in assay [2] (setting [13]) turned out to be 59.6%; in assay [2] (setting [15]), 62%; in assay [2] (setting [14]) it was 60.8%. The DC50 in assay [2] (setting [10]) worked out at 3270 nM; in assay [2] (setting [16]) it was 1180 nM; in assay [2] (setting [11]) it was 2230 nM.
Regarding `COc1cc(CCN(C)C(=O)CCCNc2cccc3c2C(=O)N(C2CCC(=O)NC2=O)C3=O)c(C)cc1Nc1ncc(Cl)c(Nc2ccccc2S(=O)(=O)C(C)C)n1` (centres unmarked) [compound 1], the concentration for half-maximal inhibition (IC50) in assay [1] (setting [3]) worked out at 44.8 nM. The results for the Dmax in assay [2] (setting [4]) and in assay [2] (setting [6]) were 25.8% and 23.8%, respectively. For the same compound, the 50% degradation concentration (DC50) in assay [2] (setting [7]) and in assay [2] (setting [9]) was 32 nM each time.
Consider `COc1cc(CCN(C)C(=O)CCCCCNc2cccc3c2C(=O)N(C2CCC(=O)NC2=O)C3=O)c(C)cc1Nc1ncc(Cl)c(Nc2ccccc2S(=O)(=O)C(C)C)n1` (centres unmarked) [compound 2, N-(4-((5-chloro-4-((2-(isopropylsulfonyl)phenyl)amino)pyrimidin-2-yl)amino)-5-methoxy-2-methylphenethyl)-6-((2-(2,6-dioxopiperidin-3-yl)-1,3-dioxoisoindolin-4-yl)amino)-N-methylhexanamide], for which the IC50 in assay [1] (setting [3]) was 76.9 nM. The Dmax in assay [2] (setting [4]) was 24.1%; in assay [2] (setting [6]), 31.4%. Besides, the results for the half-maximal degradation concentration (DC50) in assay [2] (setting [7]), in assay [2] (setting [8]) and in assay [2] (setting [9]) were 67 nM, 46 nM and 57 nM, respectively.
Consider `COc1cc(CCN(C)C(=O)CCCCCCCCNc2cccc3c2C(=O)N(C2CCC(=O)NC2=O)C3=O)c(C)cc1Nc1ncc(Cl)c(Nc2ccccc2S(=O)(=O)C(C)C)n1` (centres unmarked) [compound 3, N-(4-((5-chloro-4-((2-(isopropylsulfonyl)phenyl)amino)pyrimidin-2-yl)amino)-5-methoxy-2-methylphenethyl)-9-((2-(2,6-dioxopiperidin-3-yl)-1,3-dioxoisoindolin-4-yl)amino)-N-methylnonanamide], for which the half-inhibitory concentration (IC50) in assay [1] (setting [3]) came to 136 nM. In addition, the Dmax in assay [2] (setting [5]) came out at 38.4%. Moreover, in assay [2] (setting [8]), the 50% degradation concentration (DC50) was determined as 346 nM.

The record behind these values is US20230158157A1, “POTENT AND SELECTIVE DEGRADERS OF ALK” (DANA-FARBER CANCER INSTITUTE, INC., priority 2020, published 2023).
